In experiment [1] the target is T1, Thyrotropin-releasing hormone receptor (Mus musculus, UniProt P21761).
T1 sequence (P21761 whole entry): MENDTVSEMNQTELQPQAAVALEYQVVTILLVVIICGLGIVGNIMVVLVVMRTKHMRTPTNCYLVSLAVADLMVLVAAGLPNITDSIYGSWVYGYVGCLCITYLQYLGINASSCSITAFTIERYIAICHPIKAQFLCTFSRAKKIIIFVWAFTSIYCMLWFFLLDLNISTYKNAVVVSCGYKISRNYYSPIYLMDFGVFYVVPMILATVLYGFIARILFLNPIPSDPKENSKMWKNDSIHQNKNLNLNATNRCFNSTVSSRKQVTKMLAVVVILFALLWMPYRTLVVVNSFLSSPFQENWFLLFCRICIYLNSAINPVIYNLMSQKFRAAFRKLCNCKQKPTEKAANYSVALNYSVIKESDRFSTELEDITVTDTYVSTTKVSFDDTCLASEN
Briefly: Ability to bind thyroliberin endocrine receptor (TRH-R) using AtT-20 mouse pituitary tumor cells.

Experiment [2] has as its target T1, Thyrotropin-releasing hormone receptor. Kind of experiment: Ability to activate thyroliberin endocrine receptor (TRH-R) using AtT-20 mouse pituitary tumor cells prelabelled with myo-[3H] inositol.

Among the data in ChEMBL document CHEMBL1130656, “Thyrotropin releasing hormone analogs: a building block approach to the construction of tetracyclic peptidomimetics” (Bioorg Med Chem Lett, 1998) are Ki and EC50 values, retold here.

Molecules are shown by their SMILES. Non-standard residues stand in square brackets, D forms with d. Residues, ends and D or L forms follow the SMILES beside them. Cha = N[C@@H](CC1CCCCC1)C(=O)O; pGlu = O=C1CC[C@@H](C(=O)O)N1

As a reminder, the Ki is the dissociation constant of the complex between target and ligand, obtained from inhibition or displacement. As a reminder, the EC50 is the concentration giving half of the maximal effect. Read a low EC50 as greater potency.

As to `NC(=O)[C@@H]1CCCN1C(=O)[C@H](CC1CCCCC1)NC(=O)[C@@H]1CCC(=O)N1` ([pGlu]-[Cha]-Pro-NH2), affinity in experiment [1] was put at a Ki of 6500 nM. In experiment [2], this compound registered an EC50 of 430 nM.

On to `NC(=O)[C@@H]1CCC2CC(C3CCCCC3)=C(N3CC[C@]4(CCC(=O)N4)C3=O)C(=O)N21` (single isomer, unassigned; 2a), for which affinity in experiment [1] was put at a Ki of 1500 nM. This compound also showed an EC50 in experiment [2] of 1800 nM.

For `NC(=O)[C@@H]1CCC2CC(C3CCCCC3)=C(N3CC[C@]4(CCC(=O)N4)C3=O)C(=O)N21` (single isomer, unassigned; 2b), the affinity in experiment [1], expressed as Ki, was 36000 nM. In addition, the EC50 in experiment [2] is 18000 nM.

`NC(=O)[C@@H]1CCCN1C(=O)[C@H](Cc1cnc[nH]1)NC(=O)[C@@H]1CCC(=O)N1` [PROTIRELIN] registered a Ki in experiment [1] of 23 nM. The compound also gave an EC50 in experiment [2] of 0.49 nM.
